The values that follow come from EPA's ToxValDB 9.5 (doi:10.2903/j.efsa.2008.137r).

For one data set, the system named is Aphidius rhopalosiphi. The data set is described as follows: LR50; higher = less toxic. As to conditions: not reported; mortality.
The next data set relates to Bibionidae. As to conditions: chronic/long-term; duration: 28 days; seedling emergence.
A further data set relates to Oryctolagus sp. As to conditions: developmental; development.
Another data set deals with Lepomis macrochirus. Conditions: acute; duration: 96 hours; mortality.
In a further data set the test system is Pimephales promelas. Conditions: chronic/long-term; duration: 278 days; growth.
In the next data set the test system is Canidae. As to conditions: chronic; duration: 52 weeks; oral; Dog Other; body weight.
In another data set the test system is Anas platyrhynchos. As to conditions: short-term; oral; feed; mortality.
The test system of the next data set is Rattus norvegicus. Conditions: for NOEC: chronic, M.
The subject of a further data set is Mus musculus. As to conditions: chronic; duration: 2 years; organ weight.
The next data set concerns Daphnia magna. As to conditions: chronic/long-term; duration: 21 days; growth.
The subject of the next data set is Apis mellifera. As to conditions: acute; duration: 48 hours; oral; unspecified; mortality.
In another data set the test system is Folsomia candida. Conditions: chronic/long-term; duration: 28 days.

Values after ≈ are worked out from the molar mass of the structure shown.

As to `O=[N+]([O-])c1cc(C(F)(F)F)c(Cl)c([N+](=O)[O-])c1Nc1ncc(C(F)(F)F)cc1Cl` [Fluazinam], the LR50 with Aphidius rhopalosiphi was above 200 g/ha. Besides, the LC50 in the data set on Tagia sp. (acute, duration: 14 days, mortality) is above 1000 mg/kg; in the data set with Lepomis macrochirus, 0.055 mg/L (≈ 0.118 µM); in the data set on Anas platyrhynchos, above 1230 mg/kg-day. Besides, the NOEC with Tagia sp. (chronic/long-term, duration: 28 days) turned out to be 0.35 mg/kg; in the data set on Colinus virginianus (reproduction developmental), 60.4 mg/kg-day; in the data set on Bibionidae it was 0.00625 mg/L; with Pimephales promelas it was 0.0029 mg/L; with Rattus norvegicus it was 5 mg/kg-day; in the data set with Rattus norvegicus (mortality) it was 100 mg/kg-day. Moreover, the NOEC in the data set on Daphnia magna is 0.0125 mg/L; in the data set on Folsomia candida it was below 1.57 mg/kg. The LD50 in the data set with Colinus virginianus (acute, oral, mortality) is 1780 mg/kg-day; in the data set on Rattus norvegicus (acute, F, mortality) it was 4100 mg/kg-day; in the data set on Apis mellifera it was above 100 µg/piece. For the same compound, the figures for the NOAEL in the data set on Oryctolagus sp., with Canidae and with Mus musculus were 7 mg/kg-day, 1 mg/kg-day and 1.12 mg/kg-day, respectively.

A word on the NOAEL: it is the highest dose or exposure tested at which no adverse effect was seen.
